Converted amounts (≈) assume the structure as drawn. The source made the active and inactive calls. The calls are words filed in the database; no cut-off is given here.
Columns and labels:
Mus musculus [1] = experiment: Inhibition of STAT5 phosphorylation in NCr mouse tansplanted with TEL-JAK2 expressing mouse BA/F3 cells at 5 mg/kg, po upto 2 hrs; type: functional, organism-based; parameters: dose 5 mg/kg; conditions: BaF3
[2] = Clearance in Han Wistar rat at 10 mg/kg, po and 3 mg/kg, iv; type: ADME, organism-based; conditions: in vivo
[3] = target: T1, Muscle, skeletal receptor tyrosine-protein kinase (Homo sapiens, UniProt O15146); experiment: Inhibition of human MuSk
T1 sequence (O15146 whole entry): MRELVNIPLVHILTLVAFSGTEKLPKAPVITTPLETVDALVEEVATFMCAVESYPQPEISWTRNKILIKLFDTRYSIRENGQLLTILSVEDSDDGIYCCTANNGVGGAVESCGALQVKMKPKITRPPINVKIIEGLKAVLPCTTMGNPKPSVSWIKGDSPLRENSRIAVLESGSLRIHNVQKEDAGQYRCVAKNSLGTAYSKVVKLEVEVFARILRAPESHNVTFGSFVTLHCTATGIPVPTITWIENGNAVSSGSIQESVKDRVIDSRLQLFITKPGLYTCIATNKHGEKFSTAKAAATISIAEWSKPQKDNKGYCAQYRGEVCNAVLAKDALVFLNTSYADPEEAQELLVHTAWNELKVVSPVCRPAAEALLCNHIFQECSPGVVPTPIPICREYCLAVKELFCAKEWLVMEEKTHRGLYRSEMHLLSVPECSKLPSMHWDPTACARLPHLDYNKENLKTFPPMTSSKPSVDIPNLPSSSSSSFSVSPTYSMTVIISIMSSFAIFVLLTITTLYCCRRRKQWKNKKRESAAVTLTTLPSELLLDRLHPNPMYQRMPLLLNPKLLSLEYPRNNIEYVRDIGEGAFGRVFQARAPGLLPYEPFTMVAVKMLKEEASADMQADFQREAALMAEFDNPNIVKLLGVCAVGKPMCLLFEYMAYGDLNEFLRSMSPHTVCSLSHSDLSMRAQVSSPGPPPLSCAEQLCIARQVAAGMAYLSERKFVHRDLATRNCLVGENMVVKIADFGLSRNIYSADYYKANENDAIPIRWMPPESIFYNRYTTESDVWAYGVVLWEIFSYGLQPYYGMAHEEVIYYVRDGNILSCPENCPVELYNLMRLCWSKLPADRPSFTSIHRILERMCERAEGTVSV

[4] = Plasma concentration in NCr mouse tansplanted with TEL-JAK2 expressing mouse BA/F3 cells at 10 mg/kg, po after 2 hrs; type: ADME, organism-based, BaF3; parameters: dose 10 mg/kg, route oral
Mus musculus [5] = experiment: Inhibition of STAT5 phosphorylation in NCr mouse tansplanted with TEL-JAK2 expressing mouse BA/F3 cells at 10 mg/kg, po measured at 6 hrs; type: functional; conditions: BaF3, 6 h
[6] = target: T2, High affinity nerve growth factor receptor (Homo sapiens, UniProt P04629); experiment: Inhibition of human truncated TrkA in human MCF10a cells by time-resolved fluorimetry; type: cell-based
Target sequence in this assay (P04629 33-796 limits assumed): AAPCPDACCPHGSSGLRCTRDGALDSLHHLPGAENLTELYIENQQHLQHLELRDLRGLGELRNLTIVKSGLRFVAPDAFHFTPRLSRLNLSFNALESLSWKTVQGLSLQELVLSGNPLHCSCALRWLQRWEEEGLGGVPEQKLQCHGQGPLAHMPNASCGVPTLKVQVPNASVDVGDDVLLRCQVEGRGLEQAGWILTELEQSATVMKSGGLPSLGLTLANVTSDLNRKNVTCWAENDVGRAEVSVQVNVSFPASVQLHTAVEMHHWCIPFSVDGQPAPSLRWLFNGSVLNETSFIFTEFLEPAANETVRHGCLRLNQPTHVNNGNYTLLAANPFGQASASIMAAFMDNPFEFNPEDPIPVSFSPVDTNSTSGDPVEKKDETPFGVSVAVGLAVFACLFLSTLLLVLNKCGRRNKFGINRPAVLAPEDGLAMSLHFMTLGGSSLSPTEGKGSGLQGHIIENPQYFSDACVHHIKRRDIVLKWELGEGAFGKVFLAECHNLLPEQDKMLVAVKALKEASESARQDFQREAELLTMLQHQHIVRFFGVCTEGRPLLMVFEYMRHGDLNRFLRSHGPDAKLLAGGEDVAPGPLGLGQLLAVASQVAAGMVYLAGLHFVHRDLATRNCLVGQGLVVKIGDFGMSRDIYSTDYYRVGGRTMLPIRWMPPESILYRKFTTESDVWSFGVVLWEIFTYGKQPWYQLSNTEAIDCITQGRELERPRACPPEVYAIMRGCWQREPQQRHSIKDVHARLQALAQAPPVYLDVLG

[7] = Intrinsic clearance in Han Wistar rat microsomes at 10 mg/kg, po and 3 mg/kg, iv; type: ADME, Microsome
[8] = Half life in Han Wistar rat at 10 mg/kg, po and 3 mg/kg, iv; type: ADME, organism-based; conditions: in vivo
[9] = Aqueous solubility of compound; type: physicochemical
[10] = Volume of distribution at steady state in Han Wistar rat at 10 mg/kg, po and 3 mg/kg, iv; type: ADME, organism-based; conditions: in vivo, read-out: Vdss
[11] = Plasma concentration in NCr mouse tansplanted with TEL-JAK2 expressing mouse BA/F3 cells at 10 mg/kg, po after 6 hrs; type: ADME, organism-based, BaF3; parameters: dose 10 mg/kg, route oral
[12] = Oral bioavailability in dog; type: ADME, organism-based, Canis lupus familiaris; conditions: in vivo
[13] = target: T3, Tyrosine-protein kinase JAK3 (Homo sapiens, UniProt P52333); experiment: Inhibition of human JAK3
T3 sequence (P52333 whole entry): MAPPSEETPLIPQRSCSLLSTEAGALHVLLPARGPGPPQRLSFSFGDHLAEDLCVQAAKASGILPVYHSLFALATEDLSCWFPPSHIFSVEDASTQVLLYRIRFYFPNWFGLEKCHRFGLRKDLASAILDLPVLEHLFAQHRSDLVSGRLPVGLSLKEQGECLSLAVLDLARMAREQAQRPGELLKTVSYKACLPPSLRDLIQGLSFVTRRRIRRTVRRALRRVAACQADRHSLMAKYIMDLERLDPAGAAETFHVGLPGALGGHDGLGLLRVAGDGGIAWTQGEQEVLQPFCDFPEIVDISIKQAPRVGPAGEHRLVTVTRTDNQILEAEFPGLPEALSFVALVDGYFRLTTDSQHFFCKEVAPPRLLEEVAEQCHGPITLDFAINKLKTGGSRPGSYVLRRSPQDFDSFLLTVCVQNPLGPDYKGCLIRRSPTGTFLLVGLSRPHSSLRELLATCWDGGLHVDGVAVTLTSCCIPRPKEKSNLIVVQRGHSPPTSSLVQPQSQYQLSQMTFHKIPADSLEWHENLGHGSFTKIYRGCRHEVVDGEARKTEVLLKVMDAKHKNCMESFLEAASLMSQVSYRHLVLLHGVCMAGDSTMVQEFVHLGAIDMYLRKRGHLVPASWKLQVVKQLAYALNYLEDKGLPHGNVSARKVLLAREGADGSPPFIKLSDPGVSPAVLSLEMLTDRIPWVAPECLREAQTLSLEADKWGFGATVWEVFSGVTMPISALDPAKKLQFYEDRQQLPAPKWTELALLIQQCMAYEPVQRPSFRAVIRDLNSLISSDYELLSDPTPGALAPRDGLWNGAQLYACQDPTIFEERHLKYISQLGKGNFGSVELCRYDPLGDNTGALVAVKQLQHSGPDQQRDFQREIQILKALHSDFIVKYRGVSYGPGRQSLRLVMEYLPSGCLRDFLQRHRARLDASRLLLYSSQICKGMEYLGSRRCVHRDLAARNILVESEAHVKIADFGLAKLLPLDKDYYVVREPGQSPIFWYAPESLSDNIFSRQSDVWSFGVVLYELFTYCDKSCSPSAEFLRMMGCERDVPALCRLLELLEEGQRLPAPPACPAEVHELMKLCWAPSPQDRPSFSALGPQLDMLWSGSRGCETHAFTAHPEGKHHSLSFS

Mus musculus [14] = experiment: Inhibition of STAT5 phosphorylation in NCr mouse tansplanted with TEL-JAK2 expressing mouse BA/F3 cells at 5 mg/kg, po measured at 6 hrs; type: functional; conditions: BaF3, 6 h
[15] = target: Receptor-type tyrosine-protein kinase FLT3 (Homo sapiens, UniProt P36888, D835Y); experiment: Inhibition of human FLT3 D835Y mutant
Mus musculus [16] = experiment: Inhibition of STAT5 phosphorylation in NCr mouse tansplanted with TEL-JAK2 expressing mouse BA/F3 cells at 2.5 mg/kg, po upto 2 hrs; type: functional, organism-based; parameters: dose 2.5 mg/kg; conditions: BaF3
[17] = Free drug level in plasma of NCr mouse tansplanted with TEL-JAK2 expressing mouse BA/F3 cells at 10 mg/kg, po after 6 hrs; type: ADME, organism-based, BaF3; parameters: dose 10 mg/kg, route oral; conditions: in vivo
[18] = Clearance in dog; type: ADME, organism-based, Canis lupus familiaris; conditions: in vivo
[19] = Fraction unbound in human plasma; type: ADME, cell-free
Ephrin type-B receptor 2 = target: T4, Ephrin type-B receptor 2 (Homo sapiens, UniProt P29323); experiment: Inhibition of human EphB2
T4 sequence (P29323 whole entry): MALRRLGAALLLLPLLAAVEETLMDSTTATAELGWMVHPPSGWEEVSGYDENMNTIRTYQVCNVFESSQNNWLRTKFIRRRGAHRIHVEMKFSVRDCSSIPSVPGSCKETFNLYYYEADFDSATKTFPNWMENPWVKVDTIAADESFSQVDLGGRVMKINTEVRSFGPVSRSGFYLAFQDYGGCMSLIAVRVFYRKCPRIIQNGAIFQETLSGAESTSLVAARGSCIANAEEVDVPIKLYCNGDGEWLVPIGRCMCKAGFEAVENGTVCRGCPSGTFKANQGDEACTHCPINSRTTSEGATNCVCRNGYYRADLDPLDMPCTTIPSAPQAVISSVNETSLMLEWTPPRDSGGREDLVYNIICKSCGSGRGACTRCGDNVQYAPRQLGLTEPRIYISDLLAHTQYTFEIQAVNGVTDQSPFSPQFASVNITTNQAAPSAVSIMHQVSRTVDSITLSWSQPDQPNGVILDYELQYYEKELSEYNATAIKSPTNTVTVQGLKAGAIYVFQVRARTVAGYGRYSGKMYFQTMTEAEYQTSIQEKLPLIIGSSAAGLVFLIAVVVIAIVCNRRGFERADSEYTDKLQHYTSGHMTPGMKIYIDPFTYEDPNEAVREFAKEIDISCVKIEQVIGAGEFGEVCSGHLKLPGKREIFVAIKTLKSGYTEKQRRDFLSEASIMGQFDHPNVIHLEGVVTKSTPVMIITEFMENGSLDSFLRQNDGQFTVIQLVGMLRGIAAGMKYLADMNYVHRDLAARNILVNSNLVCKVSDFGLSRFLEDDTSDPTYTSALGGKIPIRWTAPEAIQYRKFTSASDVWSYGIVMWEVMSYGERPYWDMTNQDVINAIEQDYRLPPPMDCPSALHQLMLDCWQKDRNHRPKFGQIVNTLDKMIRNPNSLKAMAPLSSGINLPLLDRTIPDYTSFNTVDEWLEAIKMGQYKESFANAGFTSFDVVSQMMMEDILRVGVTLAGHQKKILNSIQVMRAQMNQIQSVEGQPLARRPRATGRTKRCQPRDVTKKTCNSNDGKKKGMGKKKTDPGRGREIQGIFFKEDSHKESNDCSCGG

[20] = Half life in dog; type: ADME, organism-based, Canis lupus familiaris; conditions: in vivo
[21] = target: Tyrosine-protein kinase Lck (Homo sapiens, UniProt P06239); experiment: Inhibition of human Lck
[22] = target: T5, Tyrosine-protein kinase JAK2 (Homo sapiens, UniProt O60674); experiment: Inhibition of human JAK2
[23] = Oral bioavailability in Han Wistar rat at 10 mg/kg; type: ADME, organism-based; conditions: in vivo
[24] = target: T5, Tyrosine-protein kinase JAK2; experiment: Inhibition of TEL-fused JAK2-induced proliferation of mouse BA/F3 cells; type: cell-based; conditions: BaF3
[25] = target: T6, Tyrosine-protein kinase JAK3 (Homo sapiens) (UniProt P52333); experiment: Inhibition of TEL-fused JAK3-induced proliferative activity against mouse BA/F3 cells; type: cell-based; conditions: BaF3
T6 sequence (whole entry): T3 sequence (P52333 whole entry)

[26] = target: T3, Tyrosine-protein kinase JAK3; experiment: Inhibition of JAK3 after 60 min
[27] = target: T5, Tyrosine-protein kinase JAK2; experiment: Inhibition of JAK2 after 60 min
Mus musculus [28] = experiment: Inhibition of STAT5 phosphorylation in NCr mouse tansplanted with TEL-JAK2 expressing mouse BA/F3 cells at 10 mg/kg, po upto 2 hrs; type: functional, organism-based; parameters: dose 10 mg/kg; conditions: BaF3
[29] = target: T2, High affinity nerve growth factor receptor; experiment: Inhibition of human TRKA
Target sequence in this assay (P04629 whole entry, the tested form may be a part): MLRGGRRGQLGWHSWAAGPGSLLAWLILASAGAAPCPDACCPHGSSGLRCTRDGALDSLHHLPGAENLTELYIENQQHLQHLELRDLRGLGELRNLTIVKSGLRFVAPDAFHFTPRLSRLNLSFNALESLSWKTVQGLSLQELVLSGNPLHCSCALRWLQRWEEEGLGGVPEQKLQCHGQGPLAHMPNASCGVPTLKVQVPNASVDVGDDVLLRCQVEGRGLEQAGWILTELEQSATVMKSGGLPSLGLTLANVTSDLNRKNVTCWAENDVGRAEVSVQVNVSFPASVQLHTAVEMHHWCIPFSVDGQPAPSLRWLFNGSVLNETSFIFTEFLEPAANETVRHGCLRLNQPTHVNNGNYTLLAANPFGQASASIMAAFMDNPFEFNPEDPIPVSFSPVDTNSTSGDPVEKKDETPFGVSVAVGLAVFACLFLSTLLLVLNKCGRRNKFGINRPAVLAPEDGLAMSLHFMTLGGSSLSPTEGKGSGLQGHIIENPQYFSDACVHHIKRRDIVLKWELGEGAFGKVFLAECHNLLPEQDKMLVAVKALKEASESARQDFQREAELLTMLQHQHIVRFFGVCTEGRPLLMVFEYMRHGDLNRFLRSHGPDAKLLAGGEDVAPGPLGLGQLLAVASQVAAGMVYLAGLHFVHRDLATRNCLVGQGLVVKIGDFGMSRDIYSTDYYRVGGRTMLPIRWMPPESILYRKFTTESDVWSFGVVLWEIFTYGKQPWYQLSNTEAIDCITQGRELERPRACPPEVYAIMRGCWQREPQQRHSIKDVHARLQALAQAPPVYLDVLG

[30] = Growth inhibition of human SET2 cells expressing JAK2 V617F mutant after 48 hrs by alamar blue assay; type: functional; conditions: SET-2, 48 h

T5 sequence (O60674 whole entry): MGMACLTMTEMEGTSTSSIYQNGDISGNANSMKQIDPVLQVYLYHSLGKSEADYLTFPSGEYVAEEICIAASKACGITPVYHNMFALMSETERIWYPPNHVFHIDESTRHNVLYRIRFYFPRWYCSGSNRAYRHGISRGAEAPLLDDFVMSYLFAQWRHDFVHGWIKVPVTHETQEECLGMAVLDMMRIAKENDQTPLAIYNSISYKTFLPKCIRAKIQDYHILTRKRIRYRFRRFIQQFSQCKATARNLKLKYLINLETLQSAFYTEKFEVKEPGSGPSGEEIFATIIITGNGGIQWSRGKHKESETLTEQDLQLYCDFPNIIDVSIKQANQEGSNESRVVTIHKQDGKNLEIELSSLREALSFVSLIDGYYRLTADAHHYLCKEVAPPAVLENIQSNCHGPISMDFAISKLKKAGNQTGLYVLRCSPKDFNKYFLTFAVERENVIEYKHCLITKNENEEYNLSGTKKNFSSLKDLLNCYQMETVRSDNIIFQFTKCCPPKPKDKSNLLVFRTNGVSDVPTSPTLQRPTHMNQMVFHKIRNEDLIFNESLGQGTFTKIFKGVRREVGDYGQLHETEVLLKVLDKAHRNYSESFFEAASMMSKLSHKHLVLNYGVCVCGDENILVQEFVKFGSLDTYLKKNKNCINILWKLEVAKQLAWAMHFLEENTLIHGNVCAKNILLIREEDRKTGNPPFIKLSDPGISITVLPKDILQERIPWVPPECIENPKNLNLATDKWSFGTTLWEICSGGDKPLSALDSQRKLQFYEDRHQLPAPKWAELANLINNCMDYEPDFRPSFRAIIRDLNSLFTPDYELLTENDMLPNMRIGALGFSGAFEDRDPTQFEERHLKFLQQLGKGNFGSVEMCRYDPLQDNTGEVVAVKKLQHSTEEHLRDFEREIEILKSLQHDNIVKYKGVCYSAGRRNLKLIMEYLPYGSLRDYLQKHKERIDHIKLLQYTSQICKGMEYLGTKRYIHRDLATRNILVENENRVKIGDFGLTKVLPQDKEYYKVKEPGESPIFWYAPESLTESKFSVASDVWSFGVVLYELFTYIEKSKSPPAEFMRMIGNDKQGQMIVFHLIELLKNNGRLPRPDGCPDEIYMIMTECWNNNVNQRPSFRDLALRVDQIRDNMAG
Tyrosine-protein kinase Lck, sequence (P06239 whole entry): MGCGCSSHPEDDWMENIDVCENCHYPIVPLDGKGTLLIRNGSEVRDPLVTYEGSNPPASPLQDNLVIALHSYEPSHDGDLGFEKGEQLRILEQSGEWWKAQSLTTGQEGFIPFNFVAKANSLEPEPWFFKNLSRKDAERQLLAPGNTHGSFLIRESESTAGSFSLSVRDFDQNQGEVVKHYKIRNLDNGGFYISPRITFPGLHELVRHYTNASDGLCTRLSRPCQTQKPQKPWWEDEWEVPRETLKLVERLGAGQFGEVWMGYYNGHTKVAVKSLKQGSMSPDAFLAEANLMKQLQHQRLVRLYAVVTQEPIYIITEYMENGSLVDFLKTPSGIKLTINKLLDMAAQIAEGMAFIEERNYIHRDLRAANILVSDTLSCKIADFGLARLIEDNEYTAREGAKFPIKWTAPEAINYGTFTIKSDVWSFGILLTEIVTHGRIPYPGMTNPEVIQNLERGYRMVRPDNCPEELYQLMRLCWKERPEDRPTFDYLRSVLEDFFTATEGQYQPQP

Cc1cc(Nc2nc(N[C@@H](C)c3ccc(F)cn3)c(C#N)cc2F)n[nH]1
inhibition (Mus musculus [1]): Active | clearance [2]: 4.8 mL/min/kg | IC50 [3]: 224 nM | concentration at 2 h [4]: 1100 ng/mL | inhibition in vivo at 10 mg/kg (Mus musculus [5]): 54% | IC50 [6]: 0.276 µM | microsomal CLint [7]: 5 µL/min/mg | half-life [8]: 132 min | solubility [9]: 303 µM (≈ 108 µg/mL) | Vd [10]: 0.84 L/kg | concentration at 6 h [11]: 328 ng/mL | bioavailability [12]: 100% | IC50 [13]: 15 nM | inhibition in vivo at 5 mg/kg (Mus musculus [14]): 54% | IC50 [15]: 82 nM | inhibition (Mus musculus [16]): Active | Cp(f) [17]: 0.049 µM | clearance [18]: 7.4 mL/min/kg | fraction unbound [19]: 0.053 | IC50 (Ephrin type-B receptor 2): > 10 µM | half-life [20]: 216 min | IC50 [21]: 215 nM | IC50 [22]: < 1 nM | bioavailability [23]: 39% | GI50 [24]: 36 nM | GI50 [25]: 1300 nM | IC50 [26]: 7 nM | IC50 [27]: < 3 nM | inhibition (Mus musculus [28]): Active | IC50 [29]: 3 nM

Cc1cc(Nc2nc(N[C@@H](C)c3ccc(F)cn3)c(C#N)cc2Cl)n[nH]1
clearance [2]: 2.3 mL/min/kg | microsomal CLint [7]: 5 µL/min/mg | half-life [8]: 162 min | solubility [9]: 100 µM (≈ 37.2 µg/mL) | Vd [10]: 0.52 L/kg | bioavailability [23]: 47% | GI50 [24]: 40 nM | GI50 [25]: 430 nM | IC50 [26]: 21 nM | IC50 [27]: < 3 nM

Cc1cc(Nc2nc(N[C@@H](C)c3ccc(F)cc3)c(C#N)cc2F)n[nH]1
clearance [2]: 7.5 mL/min/kg | microsomal CLint [7]: 17 µL/min/mg | half-life [8]: 342 min | solubility [9]: 13 µM (≈ 4.61 µg/mL) | Vd [10]: 2.6 L/kg | GI50 [30]: 33 nM | bioavailability [23]: 44% | GI50 [24]: 24 nM | GI50 [25]: 350 nM | IC50 [26]: 9 nM | IC50 [27]: < 3 nM

C[C@H](Nc1nc(Nc2cc(C3CC3)[nH]n2)c(F)cc1C#N)c1ccc(F)cc1
GI50 [24]: 170 nM | GI50 [25]: 1000 nM | IC50 [26]: 183 nM | IC50 [27]: 3 nM

CC(C)Oc1cc(Nc2nc(N[C@@H](C)c3ccc(F)cc3)c(C#N)cc2F)n[nH]1
IC50 [26]: 1740 nM | IC50 [27]: 688 nM
